Reference: US4015974A, “Amido phosphorothiolates” (priority 1972, dated 1977)

Tests used:
Assay type in all cases: in vivo
[1] = tested on: common lambsquarter (Chenopodium album); experiment: Pre-emergence application, herbicidal effect on common lambsquarter (Table 1); design: key: 0: not damaged; 5: completely killed; settings: 20 days after application, score 0-5
Source text: (§1) Seeds of barnyard grass (Echinochloa crus-galli) and large crabgrass (Digitaria sanguinalis) as representatives of grassy weeds and those of radish, redroot pigweed (Amaranthus retroflexus), common purslane (Portulaca oleracea) and common lambsquarter (Chenopodium album) as representatives of broad-leaved weeds were individually sowed in flower pots of about 10 cm. in diameter. After covering the seeds with soil, test compounds as shown in Table 1 were individually applied to the soil treatment. Thereafter the plants were grown in a green house and 20 days after application the herbicidal effects of the compounds were observed, the results of which are as shown in Table 1.
(§2) Herbicidal effects were evaluated by the numerals ranging from 0 (not damaged) to 5 (completely killed). All the test compounds were used in the form of wettable powder and diluted with water before application.

[2] = tested on: barnyard grass (Echinochloa crus-galli); experiment: Water application, herbicidal effect on barnyard grass (Table 2); design: key: 0: not damaged; 5: completely killed; settings: 25 days, score 0-5
Source text: (§3) Wagner pots of 14 cm. in diameter, which had been packed with 1.5 kg. of paddy field soil, were brought into the state of paddy fields. To the pots were transplanted rice seedlings at the 3-leave stage. Further, seeds of barnyard grass (Echinochloa crus-galli) were sowed in the pots and required amounts of test compounds were applied to the soil under water lodged condition. 25 days after application, the degrees of herbicidal activity and phytotoxity were investigated on above-mentioned plants which had been transplanted and sowed, and on broad-leaved weeds, e.g., monochoria (Monochoria viaginalis Presl.), false pimpernel (Linderna pyxidaria) and toothcup (Rotala indica Koehue), which had been spontaneously germinated. The test compounds were used in the form of wettable powder. The herbicidal effects and the phytotoxity were evaluated as follows by the numerals ranging from 0 to 5.

[3] = tested on: barnyard grass (Echinochloa crus-galli); experiment: Pre-emergence application, herbicidal effect on barnyard grass (Table 1); design: key: 0: not damaged; 5: completely killed; settings: 20 days after application, score 0-5
Source text: as §1, §2

[4] = tested on: broad-leaved weeds, e.g., monochoria, false pimpernel and toothcup; experiment: Water application, herbicidal effect on broad-leaved weeds (Table 2); design: key: 0: not damaged; 5: completely killed; settings: 25 days, score 0-5
Source text: as §3

[5] = tested on: large crabgrass (Digitaria sanguinalis); experiment: Pre-emergence application, herbicidal effect on large crabgrass (Table 1); design: key: 0: not damaged; 5: completely killed; settings: 20 days after application, score 0-5
Source text: as §1, §2

[6] = tested on: rice; experiment: Water application, phytotoxicity on rice (Table 2); design: key: 0: no effect; 1: very slightly affected; 2: slightly affected; 3: moderately affected; 4: considerably affected; 5: completely killed; settings: 25 days, score 0-5
Source text: as §3

[7] = tested on: common purslane (Portulaca oleracea); experiment: Pre-emergence application, herbicidal effect on common purslane (Table 1); design: key: 0: not damaged; 5: completely killed; settings: 20 days after application, score 0-5
Source text: as §1, §2

[8] = tested on: radish; experiment: Pre-emergence application, herbicidal effect on radish (Table 1); design: key: 0: not damaged; 5: completely killed; settings: 20 days after application, score 0-5
Source text: as §1, §2

[9] = tested on: redroot pigweed (Amaranthus retroflexus); experiment: Pre-emergence application, herbicidal effect on redroot pigweed (Table 1); design: key: 0: not damaged; 5: completely killed; settings: 20 days after application, score 0-5
Source text: as §1, §2

Structure (SMILES) | Herbicidal effect, common lambsquarter ([1]; 10 g./a.) | Herbicidal effect, common lambsquarter ([1]; 20 g./a.) | Herbicidal effect, common lambsquarter ([1]; 40 g./a.) | Herbicidal effects, barnyard grass ([2]; 10 g/a) | Herbicidal effects, barnyard grass ([2]; 20 g/a) | Herbicidal effects, barnyard grass ([2]; 40 g/a) | Herbicidal effect, barnyard grass ([3]; 10 g./a.) | Herbicidal effect, barnyard grass ([3]; 20 g./a.) | Herbicidal effect, barnyard grass ([3]; 40 g./a.) | Herbicidal effects, broad-leaved weeds ([4]; 10 g/a) | Herbicidal effects, broad-leaved weeds ([4]; 20 g/a) | Herbicidal effects, broad-leaved weeds ([4]; 40 g/a) | Herbicidal effect, large crabgrass ([5]; 10 g./a.) | Herbicidal effect, large crabgrass ([5]; 20 g./a.) | Herbicidal effect, large crabgrass ([5]; 40 g./a.) | Phytotoxicity on rice ([6]; 10 g/a) | Phytotoxicity on rice ([6]; 20 g/a) | Phytotoxicity on rice ([6]; 40 g/a) | Herbicidal effect, common purslane ([7]; 10 g./a.) | Herbicidal effect, common purslane ([7]; 20 g./a.) | other results
CCOP(=O)(SCC)SCC(=O)N1CCCCC1C (stereo not drawn) [Compound 1] | 4 | 4 | 5 | 5 | 5 | 5 | 5 | 5 | 5 | 5 | 5 | 5 | 5 | 5 | 5 | 0 | 0 | 0 | 4 | 4 | Herbicidal effect, common purslane ([7]; 40 g./a.): 5; Herbicidal effect, radish ([8]; 10 g./a.): 0; Herbicidal effect, radish ([8]; 20 g./a.): 0; Herbicidal effect, radish ([8]; 40 g./a.): 0; Herbicidal effect, redroot pigweed ([9]; 10 g./a.): 4; Herbicidal effect, redroot pigweed ([9]; 20 g./a.): 5; Herbicidal effect, redroot pigweed ([9]; 40 g./a.): 5
CCCCOP(=O)(SCC)SCC(=O)N1CCCCC1C (stereo not drawn) [Compound 15] | 4 | 5 | 5 | 5 | 5 | 5 | 5 | 5 | 5 | 5 | 5 | 5 | 5 | 5 | 5 | 0 | 0 | 0 | 5 | 5 | Herbicidal effect, common purslane ([7]; 40 g./a.): 5; Herbicidal effect, radish ([8]; 10 g./a.): 0; Herbicidal effect, radish ([8]; 20 g./a.): 0; Herbicidal effect, radish ([8]; 40 g./a.): 0; Herbicidal effect, redroot pigweed ([9]; 10 g./a.): 4; Herbicidal effect, redroot pigweed ([9]; 20 g./a.): 5; Herbicidal effect, redroot pigweed ([9]; 40 g./a.): 5
CCCOP(=O)(SCCC)SCC(=O)N1CCCCC1C (stereo not drawn) [Compound 16, O,S-di-n-propyl-S-(2-methylpiperidinocarbamoylmethyl)phosphorodithiolate] | 4 | 4 | 5 | 5 | 5 | 5 | 4 | 4 | 5 | 5 | 5 | 5 | 5 | 5 | 5 | 0 | 0 | 0 | 4 | 4 | Herbicidal effect, common purslane ([7]; 40 g./a.): 4; Herbicidal effect, radish ([8]; 10 g./a.): 0; Herbicidal effect, radish ([8]; 20 g./a.): 0; Herbicidal effect, radish ([8]; 40 g./a.): 0; Herbicidal effect, redroot pigweed ([9]; 10 g./a.): 4; Herbicidal effect, redroot pigweed ([9]; 20 g./a.): 4; Herbicidal effect, redroot pigweed ([9]; 40 g./a.): 4
CCOP(=O)(SCC(=O)N1CCCC(C)C1)SC(C)C (stereo not drawn) [Compound 22] | 4 | 4 | 5 | 5 | 5 | 5 | 4 | 5 | 5 | 5 | 5 | 5 | 4 | 5 | 5 | 0 | 0 | 0 | 4 | 4 | Herbicidal effect, common purslane ([7]; 40 g./a.): 4; Herbicidal effect, radish ([8]; 10 g./a.): 0; Herbicidal effect, radish ([8]; 20 g./a.): 0; Herbicidal effect, radish ([8]; 40 g./a.): 0; Herbicidal effect, redroot pigweed ([9]; 10 g./a.): 3; Herbicidal effect, redroot pigweed ([9]; 20 g./a.): 4; Herbicidal effect, redroot pigweed ([9]; 40 g./a.): 5
CCOP(=O)(SCC(=O)N1CCC(C)CC1)SC(C)C (stereo not drawn) [Compound 26] | 3 | 4 | 4 | 5 | 5 | 5 | 4 | 5 | 5 | 5 | 5 | 5 | 4 | 5 | 5 | 0 | 0 | 0 | 4 | 4 | Herbicidal effect, common purslane ([7]; 40 g./a.): 4; Herbicidal effect, radish ([8]; 10 g./a.): 0; Herbicidal effect, radish ([8]; 20 g./a.): 0; Herbicidal effect, radish ([8]; 40 g./a.): 0; Herbicidal effect, redroot pigweed ([9]; 10 g./a.): 4; Herbicidal effect, redroot pigweed ([9]; 20 g./a.): 4; Herbicidal effect, redroot pigweed ([9]; 40 g./a.): 4
CCOP(=O)(SCC(=O)N1CCC(C)CC1)SC(C)CC (stereo not drawn) [Compound 27] | 4 | 4 | 5 | 5 | 5 | 5 | 4 | 5 | 5 | 5 | 5 | 5 | 5 | 5 | 5 | 0 | 0 | 0 | 4 | 4 | Herbicidal effect, common purslane ([7]; 40 g./a.): 4; Herbicidal effect, radish ([8]; 10 g./a.): 0; Herbicidal effect, radish ([8]; 20 g./a.): 0; Herbicidal effect, radish ([8]; 40 g./a.): 0; Herbicidal effect, redroot pigweed ([9]; 10 g./a.): 3; Herbicidal effect, redroot pigweed ([9]; 20 g./a.): 4; Herbicidal effect, redroot pigweed ([9]; 40 g./a.): 5
O=[N+]([O-])c1ccc(Oc2ccc(Cl)cc2Cl)cc1 [NIP, reference compound] | – | – | – | – | 5 | 5 | – | – | – | – | 5 | 5 | – | – | – | – | 2 | 4 | – | – | –
